What was measured:
[1] = Whole-body excretion studies in rats after oral administration (whole-body counts, bi-exponential fit); format: in vivo, rat; conditions: for b (amplitude of second component) / c (constant; percentage predicted as never being excreted) / x (rate constant of first component) / y (rate constant of second component): Retention(t)=ae^-xt+be^-yt+c; for a (amplitude of first component, Retention(t)=ae^-xt+be^-yt+c): whole-body retention as % of initial counts, 6-8 days
Description: Whole-body excretion studies in rats over a period of 8 days after oral administration of compounds i to viii indicate that excretion is delayed with respect to a non-absorbable radioactive maker, ^131 I-polyvinylpyrollidone.
For each of the eight compounds under investigation, approximately 10-15 μCi was administered via an intragastric tube to rats. Whole-body counts were determined immediately after administration and at intervals during the following 6-8 days. A whole-body standard permitted corrections for radioactive decay and variations in counter efficiency.
Whole-body retention is expressed as a percentage of the counts determined immediately after administration.
Retention (t)=ae^-xt +be^-yt +c (1)

[2] = Tissue distribution studies in rats after oral administration; format: in vivo, rat; conditions: for whole body retention by tissue distribution (dissection): at the end of 8 days
Description: The pattern of tissue distribution is similar for all the compounds. At 20 hours the ^75 Se radioactivity is largely confined to the liver, gut and faeces; apart from compounds iii and iv less than 5 percent of the radioactivity is distributed among other organs.

[3] = Clinical whole-body counting of 75Se retention after oral administration; format: in vivo, human; conditions: for Retention of Selenium-75 Radioactivity: oral approx. 1 μCi
Description: Approximately 1 μCi of compound ii was given orally as a drink in water to four adult volunteers, two of them being normal active adult males, 35-50 years of age, and two who had received a total ileal resection more than 10 years previously. All were on a normal diet. Se-ii was administered between 10.00 am and 12 noon. Body radioactivity was then measured in a whole-body counter immediately after administering the ^75 Se-ii and subsequently at 48 hours and 7 days.

[4] = Biliary excretion studies in rats, oral mixture of 75Se-seleno bile acid and 14C-cholic acid; format: in vivo, rat
Description: Measurement of the ratio of the ^14 C/^75 Se radioactivity collected in a 24 hour bile sample to the ^14 C/^75 Se radioactivity administered orally gives an indication of the efficiency of absorption of the seleno bile acid as compared to ^14 C-cholic acid. Ideally, when these absorptions are the same the ratio would be 1, but as the efficiency of the adsorption seleno bile acid diminishes the ratio increases.

[5] = Biliary collection of 75Se radioactivity after intravenous injection, bile-cannulated rabbit; format: in vivo
Description: A male rabbit (NZW×LOP; 4.8 kg) was anaesthetized with sodium pentobarbitone ("Sagatal"), intravenously injected. A tracheotomy was performed and into a jugular vein was inserted a cannula with a 3-way tap. The animal was ventilated by intermittent positive pressure and anaesthesia maintained by intravenous administration of pentobarbitone as required. A midline ventral incision was made in the abdominal wall and the liver reflected to reveal the gall bladder, cystic duct and the common bile duct. After ligation of the cystic duct the common bile duct was cannulated for the collection of bile.
After a period of stabilization 1 ml of a solution of 19-methyl-[^75 Se]selenocholesterol (0.01 mg; 12 mCi) in polysorbate/normal saline was injected via the jugular cannula. Bile was collected as a series of 15-minute samples in preweighed tubes. After collection each sample was weighed and counted for ^75 Se radioactivity. The flow of bile, initially at 3.4 ml/15 minutes, declined to 1.5 ml/15 minutes after 61/2 hours. During this period 56.65 g of bile was collected containing approximately 100 μCi of ^75 Se radioactivity (about 1 percent of the injected dose).

[6] = Intravenous administration to humans with the object of adrenal visualisation; format: in vivo, human
From the text: It was surmised that 19-methyl-^75 Se selenocholesterol was being converted to analogues of bile salts in which a methylseleno group was attached to the C19 carbon atom.

[7] = at 20 hours, relative to the other compounds

Row | Structure (SMILES) | b (amplitude of second component) [1] | c (constant; percentage predicted as never being excreted) [1] | x (rate constant of first component) [1] | y (rate constant of second component) [1] | a (amplitude of first component, Retention(t)=ae^-xt+be^-yt+c) [1] | other results
1 | C[C@H](CC[123Te]CC(=O)O)[C@H]1CC[C@H]2[C@@H]3CC[C@@H]4C[C@H](O)CC[C@]4(C)[C@H]3C[C@H](O)[C@]12C [viii, 3α,12α-dihydroxy-23-(carboxymethyl-[^123m Te]telluro)-24-nor-5β-cholane] | 6.3% | 1.3% | 2.26 day⁻¹ | 0.43 day⁻¹ | 173% | –
2 | C[C@H](C[75Se]CC(=O)O)[C@H]1CC[C@H]2[C@@H]3CC[C@@H]4C[C@H](O)CC[C@]4(C)[C@H]3C[C@H](O)[C@]12C [Compound ii, 3α,12α-dihydroxy-22-(carboxymethyl-[^75 Se]seleno)-23,24-bisnor-5β-cholane] | 27.6% | 3.36% | 2.29 day⁻¹ | 0.65 day⁻¹ | 190% | 75Se radioactivity in the faeces [2, 7]: a very much small percentage of ^75 Se radioactivity in the faeces; 75Se radioactivity in the small bowel [2, 7]: a correspondingly larger proportion in the small bowel; Retention of Selenium-75 Radioactivity ([3]; Ileal resection (3), 0 h): 100%; Retention of Selenium-75 Radioactivity ([3]; Ileal resection (3), 48 hrs.): 26%; Retention of Selenium-75 Radioactivity ([3]; Ileal resection (3), 7 days): 7.5%; Retention of Selenium-75 Radioactivity ([3]; Ileal resection (4), 0 h, patient on drugs to slow bowel transfer): 100%; Retention of Selenium-75 Radioactivity ([3]; Ileal resection (4), 48 hrs., patient on drugs to slow bowel transfer): 80%; Retention of Selenium-75 Radioactivity ([3]; Ileal resection (4), 7 days, patient on drugs to slow bowel transfer): 9.5%; Retention of Selenium-75 Radioactivity ([3]; Normal (1), 0 h): 100%; Retention of Selenium-75 Radioactivity ([3]; Normal (1), 48 hrs.): 80%; Retention of Selenium-75 Radioactivity ([3]; Normal (1), 7 days): 31%; Retention of Selenium-75 Radioactivity ([3]; Normal (2), 0 h): 100%; Retention of Selenium-75 Radioactivity ([3]; Normal (2), 48 hrs.): 100%; Retention of Selenium-75 Radioactivity ([3]; Normal (2), 7 days): 27%; rate of elimination from the body ([3]; humans who have suffered an ileal resection): this rate of elimination is increased; rate of elimination from the body ([3]; normal humans, compared with rats): considerably slower than it is for rats
3 | C[C@H](CC[75Se]CCC(=O)O)[C@H]1CC[C@H]2[C@@H]3[C@H](O)C[C@@H]4C[C@H](O)CC[C@]4(C)[C@H]3C[C@H](O)[C@]12C [iv, 3α,7α,12α-trihydroxy-23-(β-carboxyethyl-[^75 Se]seleno)-24-nor-5β-cholane] | 42.5% | 15.5% | 2.77 day⁻¹ | 0.66 day⁻¹ | 260% | whole body retention by tissue distribution (dissection) [2]: ~5.5%; whole body retention by tissue distribution (dissection) ([2]; listed as tri-hydroxy compound): approximately 5.5%
4 | CC([75Se]CC(=O)O)[C@H]1CC[C@H]2[C@@H]3[C@H](O)C[C@@H]4C[C@H](O)CC[C@]4(C)[C@H]3C[C@H](O)[C@]12C (stereo partly drawn) [v, 3α,7α,12α-trihydroxy-20-(carboxymethyl-[^75 Se]seleno)-5β-pregnane] | 16.5% | 0.8% | 2.52 day⁻¹ | 0.38 day⁻¹ | 98% | –
5 | C[C@H](CCC[75Se]CC(=O)O)[C@H]1CC[C@H]2[C@@H]3CC[C@@H]4C[C@H](O)CC[C@]4(C)[C@H]3CC[C@]12C [vii, 3α-hydroxy-24-(carboxymethyl-[^75 Se]seleno)-5β-cholane] | 11.8% | 2.85% | 2.29 day⁻¹ | 0.44 day⁻¹ | 203% | –
6 | CC([75Se]CC(=O)NCC(=O)O)[C@H]1CC[C@H]2[C@@H]3[C@H](O)C[C@@H]4C[C@H](O)CC[C@]4(C)[C@H]3C[C@H](O)[C@]12C (some centres unmarked) [vi, Glyco-22-[^75 Se]selenacholic acid] | 7.2% | 0.58% | 1.54 day⁻¹ | 0.54 day⁻¹ | 221% | –
7 | C[C@H](CC[75Se]CCC(=O)O)[C@H]1CC[C@H]2[C@@H]3[C@H](O)C[C@@H]4C[C@H](O)CC[C@]4(C)[C@H]3CC[C@]12C [iii, 3α,7α-dihydroxy-23-(β-carboxyethyl-[^75 Se]seleno)-24-nor-5β-cholane] | 37.5% | 4.0% | 2.31 day⁻¹ | 0.53 day⁻¹ | 170% | ratio of 14C/75Se radioactivity in 24 hour bile sample to 14C/75Se administered orally ([4]; 24 h bile, 14C-cholic acid internal marker, 1 = absorption same as cholic acid): 54; efficiency of absorption ([4]; compared to 14C-cholic acid): very much reduced absorption
8 | C[75Se]C[C@]12CC[C@H](O)CC1=CC[C@@H]1[C@@H]2CC[C@]2(C)[C@@H]([C@H](C)CCCC(C)C)CC[C@@H]12 [19-methyl-[^75 Se]selenocholesterol] | – | – | – | – | – | 75Se radioactivity collected in bile (of injected dose) ([5]; i.v. via jugular cannula, bile collected 6 1/2 hours, 390 min): about 1%; 75Se radioactivity collected in bile ([5]; i.v., 12 mCi injected, 56.65 g bile over 6 1/2 hours): approximately 100 μCi; localisation of selenium-75 radioactivity [6]: concentrated in the enterohepatic system; metabolism compared with cholesterol [6]: appeared to parallel that of cholesterol

Reference: US4202876A, “Investigating body function” (The Radiochemical Centre Limited, priority 1977, dated 1980)
